Laboratory results: PubChem BioAssay AID212 (DTP/NCI, 2004)
Where “and” joins values, the source holds several entries; their conditions need not be identical. Equal entries are not always repeated. Results filed as inconclusive are left out.

Test system: BDF1 mice, colon carcinoma 38 sc, T/C %
Assay: NCI In Vivo Anticancer Drug Screen. Data for tumor model Colon Carcinoma 38 (subcutaneous) in B6D2F1 (BDF1) mice
In short: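 Compound antitumor activity was assessed in mice carrying transplantable tumors. Survival or tumor size was recorded, and each value is the treated-group measurement divided by that of the vehicle-treated control group.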

[1] = endpoint: median tumor weight (est.), dose: 100.0 mg/kg/injection, schedule: Q07DX002 (ip), vehicle: Klucel (hydroxypropylcellulose) (HPC), higher = larger tumour
[2] = endpoint: median tumor weight (est.), dose: 12.5 mg/kg/injection, schedule: Q07DX002 (ip), vehicle: saline, higher = larger tumour
[3] = endpoint: median tumor weight (est.), dose: 25.0 mg/kg/injection, schedule: Q07DX002 (ip), vehicle: saline, higher = larger tumour
[4] = endpoint: median tumor weight (est.), dose: 50.0 mg/kg/injection, schedule: Q07DX002 (ip), vehicle: saline, higher = larger tumour

SMILES: CCCCCC[C@H]([C@H](C)O)n1cnc2c(N)ncnc21
- T/C (endpoint: median survival time, dose: 22.0 mg/kg/injection, schedule: Q02DX006 (iv), vehicle: saline, higher = longer survival): 113 % of control
- T/C (endpoint: median survival time, dose: 36.0 mg/kg/injection, schedule: Q02DX006 (iv), vehicle: saline, higher = longer survival): 111 % of control
- T/C (endpoint: median survival time, dose: 58.0 mg/kg/injection, schedule: Q02DX006 (iv), vehicle: saline, higher = longer survival): 92 % of control
- T/C (endpoint: median survival time, dose: 93.0 mg/kg/injection, schedule: Q02DX006 (iv), vehicle: saline, higher = longer survival): 115 % of control
- T/C (endpoint: median tumor weight (est.), dose: 6.25 mg/kg/injection, schedule: Q07DX002 (ip), vehicle: Klucel (hydroxypropylcellulose) (HPC), higher = larger tumour): 91 % of control
- T/C (endpoint: median tumor weight (est.), dose: 12.5 mg/kg/injection, schedule: Q07DX002 (ip), vehicle: Klucel (hydroxypropylcellulose) (HPC), higher = larger tumour): 194 % of control
- T/C [1]: 117 % of control and 103 % of control

SMILES: CCN(CC)CCNC(=O)Cc1cccc2c(=O)cc(-c3ccccc3)oc12
- T/C [1]: 101 % of control
- T/C (endpoint: median tumor weight (est.), dose: 200.0 mg/kg/injection, schedule: Q07DX002 (ip), vehicle: Klucel (hydroxypropylcellulose) (HPC), higher = larger tumour): 96 % of control
- T/C (endpoint: median tumor weight (est.), dose: 400.0 mg/kg/injection, schedule: Q07DX002 (ip), vehicle: Klucel (hydroxypropylcellulose) (HPC), higher = larger tumour): 68 % of control

SMILES: CN1c2c(nc(N)[nH]c2=O)NCC1CCNc1ccc(C(=O)NC(CCC(=O)O)C(=O)O)cc1 (stereo not given)
- T/C (endpoint: median tumor weight (est.), dose: 50.0 mg/kg/injection, schedule: Q07DX003 (ip), vehicle: saline, higher = larger tumour): 155 % of control
- T/C (endpoint: median tumor weight (est.), dose: 100.0 mg/kg/injection, schedule: Q07DX003 (ip), vehicle: saline, higher = larger tumour): 64 % of control
- T/C (endpoint: median tumor weight (est.), dose: 200.0 mg/kg/injection, schedule: Q07DX003 (ip), vehicle: saline, higher = larger tumour): 99 % of control
- T/C (endpoint: median tumor weight (est.), dose: 400.0 mg/kg/injection, schedule: Q07DX003 (ip), vehicle: saline, higher = larger tumour): 98 % of control
- T/C (endpoint: median tumor weight (est.), dose: 800.0 mg/kg/injection, schedule: Q07DX003 (ip), vehicle: saline, higher = larger tumour): 92 % of control

SMILES: CC[N](CC)[Ge]([CH2]C)[CH2]C.CC[N](CC)[Ge]([CH2]C)[CH2]C
- T/C (endpoint: median tumor weight (est.), dose: 6.25 mg/kg/injection, schedule: Q07DX002 (ip), vehicle: saline, higher = larger tumour): 87 % of control
- T/C (endpoint: median tumor weight (est.), dose: 6.25 mg/kg/injection, schedule: Q07DX002 (ip), vehicle: suspension in saline, higher = larger tumour): 77 % of control
- T/C [2]: 77 % of control
- T/C (endpoint: median tumor weight (est.), dose: 12.5 mg/kg/injection, schedule: Q07DX002 (ip), vehicle: suspension in saline, higher = larger tumour): 69 % of control
- T/C [3]: 79 % of control
- T/C (endpoint: median tumor weight (est.), dose: 25.0 mg/kg/injection, schedule: Q07DX002 (ip), vehicle: suspension in saline, higher = larger tumour): 95 % of control
- T/C [4]: 77 % of control
- T/C (endpoint: median tumor weight (est.), dose: 50.0 mg/kg/injection, schedule: Q07DX002 (ip), vehicle: suspension in saline, higher = larger tumour): 84 % of control
- T/C (endpoint: median tumor weight (est.), dose: 100.0 mg/kg/injection, schedule: Q07DX002 (ip), vehicle: saline, higher = larger tumour): 61 % of control

SMILES: [CH3][Sn]([CH3])([Cl])[S]CCN
- T/C [2]: 71 % of control
- T/C [3]: 47 % of control
- T/C [4]: 90 % of control

SMILES: C/C=C(\C)c1cc(=O)c2c(C)cc3c(c2o1)C(=O)c1c(O)c(C2CC(C)(N(C)C)C(O)C(C)O2)cc(C2CC(N(C)C)C(O)C(C)O2)c1C3=O (stereo not given)
- T/C (endpoint: median tumor weight (est.), dose: 0.62 mg/kg/injection, schedule: Q07DX002 (ip), vehicle: saline, higher = larger tumour): 117 % of control
- T/C (endpoint: median tumor weight (est.), dose: 1.25 mg/kg/injection, schedule: Q07DX002 (ip), vehicle: saline, higher = larger tumour): 118 % of control
- T/C (endpoint: median tumor weight (est.), dose: 62.5 micrograms/kg/injection, schedule: Q07DX002 (ip), vehicle: saline, higher = larger tumour): 109 % of control and 103 % of control
- T/C (endpoint: median tumor weight (est.), dose: 250.0 micrograms/kg/injection, schedule: Q07DX002 (ip), vehicle: saline, higher = larger tumour): 81 % of control and 84 % of control
- T/C (endpoint: median tumor weight (est.), dose: 500.0 micrograms/kg/injection, schedule: Q07DX002 (ip), vehicle: saline, higher = larger tumour): 80 % of control and 85 % of control
- T/C (endpoint: median tumor weight (est.), dose: 1000.0 micrograms/kg/injection, schedule: Q07DX002 (ip), vehicle: saline, higher = larger tumour): 74 % of control and 95 % of control
- T/C (endpoint: median tumor weight (est.), dose: 2000.0 micrograms/kg/injection, schedule: Q07DX002 (ip), vehicle: saline, higher = larger tumour): 100 % of control

SMILES: CN(C)CCOc1ccc2c(c1)C/C(=C/c1ncc([N+](=O)[O-])n1C)C2=O
- T/C (endpoint: median tumor weight (est.), dose: 12.5 mg/kg/injection, schedule: Q07DX002 (ip), vehicle: saline with Tween-80, higher = larger tumour): 76 % of control
- T/C (endpoint: median tumor weight (est.), dose: 25.0 mg/kg/injection, schedule: Q07DX002 (ip), vehicle: saline with Tween-80, higher = larger tumour): 94 % of control
- T/C (endpoint: median tumor weight (est.), dose: 50.0 mg/kg/injection, schedule: Q07DX002 (ip), vehicle: saline with Tween-80, higher = larger tumour): 106 % of control
- T/C (endpoint: median tumor weight (est.), dose: 100.0 mg/kg/injection, schedule: Q07DX002 (ip), vehicle: saline with Tween-80, higher = larger tumour): 91 % of control
- T/C (endpoint: median tumor weight (est.), dose: 200.0 mg/kg/injection, schedule: Q07DX002 (ip), vehicle: saline with Tween-80, higher = larger tumour): 106 % of control
- T/C (endpoint: median tumor weight (est.), dose: 400.0 mg/kg/injection, schedule: Q07DX002 (ip), vehicle: saline with Tween-80, higher = larger tumour): 50 % of control
